Reference: publication PMC4366844, “Biochemical and Pharmacological Characterizations of ESI-09 Based EPAC Inhibitors: Defining the ESI-09 “Therapeutic Window”” (Scientific Reports, 2015)
≈ marks a conversion by molar mass, not a printed value. Where “and” joins values, the source holds several entries; their conditions need not be identical. Equal entries are not always repeated. Entries after “also recorded” stand apart in the source; their conditions may differ. Where two headings read alike, the source gives them in different places.

How the values were obtained:
EPAC2 [1] = biological target: T1, EPAC2 (Mus musculus, UniProt Q9EQZ6); assay: 8-NBD-cAMP competition assay; format: binding
T1 construct: made in house
T1 sequence (Q9EQZ6 1-1011): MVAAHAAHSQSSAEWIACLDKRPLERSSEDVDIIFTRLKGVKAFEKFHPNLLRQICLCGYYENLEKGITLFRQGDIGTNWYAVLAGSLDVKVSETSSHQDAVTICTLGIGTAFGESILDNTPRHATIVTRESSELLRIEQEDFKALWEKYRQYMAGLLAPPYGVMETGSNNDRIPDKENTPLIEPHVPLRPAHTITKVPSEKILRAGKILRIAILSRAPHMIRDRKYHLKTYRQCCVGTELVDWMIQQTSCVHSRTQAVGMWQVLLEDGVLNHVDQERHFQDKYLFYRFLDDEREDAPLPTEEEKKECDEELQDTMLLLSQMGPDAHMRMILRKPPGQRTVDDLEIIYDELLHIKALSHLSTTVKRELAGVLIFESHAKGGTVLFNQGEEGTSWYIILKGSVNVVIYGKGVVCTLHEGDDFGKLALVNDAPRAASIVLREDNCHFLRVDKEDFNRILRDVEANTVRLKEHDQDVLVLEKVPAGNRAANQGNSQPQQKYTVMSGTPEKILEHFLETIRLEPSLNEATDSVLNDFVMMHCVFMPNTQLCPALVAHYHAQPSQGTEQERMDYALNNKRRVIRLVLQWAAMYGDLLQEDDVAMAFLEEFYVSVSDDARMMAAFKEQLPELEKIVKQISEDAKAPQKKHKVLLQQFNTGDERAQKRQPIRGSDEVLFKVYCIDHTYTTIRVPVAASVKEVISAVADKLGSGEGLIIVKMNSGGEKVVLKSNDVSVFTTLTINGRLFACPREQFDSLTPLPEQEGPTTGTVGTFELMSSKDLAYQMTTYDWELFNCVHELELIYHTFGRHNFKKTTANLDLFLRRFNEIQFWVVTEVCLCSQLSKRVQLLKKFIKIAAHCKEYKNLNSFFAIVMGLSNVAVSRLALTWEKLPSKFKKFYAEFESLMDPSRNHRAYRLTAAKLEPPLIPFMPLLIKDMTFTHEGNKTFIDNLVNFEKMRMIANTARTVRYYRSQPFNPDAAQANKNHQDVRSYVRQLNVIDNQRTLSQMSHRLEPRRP
Experimental: Test compounds at various concentrations were added to the reaction mix, and fluorescence intensity signals from the 8-NBD probe before and after the addition of test compounds was monitored using a SpectaMaxM2 microplate reader (Molecular Devices, Silicon Valley, CA, USA) with excitation/emission wavelengths set at 470/540 nm.

EPAC2 [2] = conditions: cited from earlier work
EPAC2 [3] = biological target: T1, EPAC2; assay: In vitro GEF activity assay (Rap1b-BODIPY-GDP), EPAC2; format: biochemical; conditions: for mode of inhibition toward cAMP: cAMP titration with 5 µM ESI-09 or 1 µM HJC0726
[4] = Solubility measurement by HPLC analysis; format: physicochemical
Experimental: ESI-09 and its analogs were synthesized following the recently reported synthetic procedures. The solubility of the selected compounds was measured by HPLC analysis following the reported protocol.

EPAC2 [5] = biological target: T1, EPAC2; assay: Protein thermal denaturation assay (Sypro Orange), EPAC2
Experimental: Thermal denaturation assay was performed using a BioRad CFX96 Touch^TM Real-Time PCR Detection system as described previously. […] Melting temperatures (Tm) were calculated by fitting the sigmoidal melt curve to the Boltzmann equation as described using GraphPad Prism, with R^2 values of >0.99[40].

EPAC1h 149-318 = biological target: T2, EPAC1h 149-318 (Homo sapiens, UniProt O95398); assay: {15N,1H} HSQC NMR of EPAC1 cAMP binding domain
T2 construct: the CBD of human EPAC1 (aa. 149-318); made in house
T2 sequence (O95398 149-318 isoform O95398-3): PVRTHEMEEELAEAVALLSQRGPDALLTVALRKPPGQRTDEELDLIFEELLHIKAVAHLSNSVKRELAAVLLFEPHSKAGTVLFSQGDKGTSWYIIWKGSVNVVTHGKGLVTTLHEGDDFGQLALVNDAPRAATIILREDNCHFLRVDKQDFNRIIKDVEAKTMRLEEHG
Excerpt: In addition to the thermo-unfolding experiments, {^15N, ^1H} Heteronuclear Single Quantum Coherence (HSQC) spectra were acquired to characterize the interaction between ESI-09 and the CBD of human EPAC1 (aa. 149-318) and address whether ESI-09 acts as a non-specific denaturant. The {^15N, ^1H} chemical shifts serve as excellent sensors for protein structure and dynamics as they provide information about the local chemical environment surrounding the amides of every amino acid (except prolines) within the protein. EPAC1h (149-318) has already been extensively analyzed by NMR spectroscopy. It results in HSQC spectra with well-dispersed peaks, which are representative of a fully folded protein (Fig. 5A). […]
EPAC1h 149-318 was expressed and purified using previously documented protocols[24][25][26][27] and dialyzed into NMR buffer (50 mM Tris, 50 mM NaCl, 2 mM EDTA, 2 mM EGTA, 1 mM DTT and 0.02% NaN3, pH 7.6). […] Gradient- and sensitivity- enhanced {^15N, ^1H} heteronuclear single quantum coherence (HSQC) spectra with 128 (t1) and 1024 (t2) complex points and spectral widths of 31.82 and 14.06 ppm for the ^15N and ^1H dimensions, respectively, were recorded with 8 scans and a recycle delay of 1 s. […] All spectra were processed with NMRPipe[41] and analyzed in Sparky[42].

fatal rickettsioses = conditions: mice, daily dose of 10 mg/kg IP or 50 mg/kg oral gavage; cited from earlier work
[6] = test system: ovalbumin-induced oral tolerance; conditions: mice, daily dose of 10 mg/kg IP or 50 mg/kg oral gavage; cited from earlier work
[7] = test system: pancreatic ductal adenocarcinoma; conditions: in vivo administration; cited from earlier work
[8] = design: method as in Our recent studies; conditions: ref Our recent studies; cited from earlier work
full-length EPAC1 = biological target: T3, full-length EPAC1 (Homo sapiens, UniProt O95398); assay: In vitro GEF activity assay (Rap1b-BODIPY-GDP), EPAC1; format: biochemical; conditions: vs ESI-09
T3 construct: made in house
T3 sequence (O95398 1-881 isoform O95398-3): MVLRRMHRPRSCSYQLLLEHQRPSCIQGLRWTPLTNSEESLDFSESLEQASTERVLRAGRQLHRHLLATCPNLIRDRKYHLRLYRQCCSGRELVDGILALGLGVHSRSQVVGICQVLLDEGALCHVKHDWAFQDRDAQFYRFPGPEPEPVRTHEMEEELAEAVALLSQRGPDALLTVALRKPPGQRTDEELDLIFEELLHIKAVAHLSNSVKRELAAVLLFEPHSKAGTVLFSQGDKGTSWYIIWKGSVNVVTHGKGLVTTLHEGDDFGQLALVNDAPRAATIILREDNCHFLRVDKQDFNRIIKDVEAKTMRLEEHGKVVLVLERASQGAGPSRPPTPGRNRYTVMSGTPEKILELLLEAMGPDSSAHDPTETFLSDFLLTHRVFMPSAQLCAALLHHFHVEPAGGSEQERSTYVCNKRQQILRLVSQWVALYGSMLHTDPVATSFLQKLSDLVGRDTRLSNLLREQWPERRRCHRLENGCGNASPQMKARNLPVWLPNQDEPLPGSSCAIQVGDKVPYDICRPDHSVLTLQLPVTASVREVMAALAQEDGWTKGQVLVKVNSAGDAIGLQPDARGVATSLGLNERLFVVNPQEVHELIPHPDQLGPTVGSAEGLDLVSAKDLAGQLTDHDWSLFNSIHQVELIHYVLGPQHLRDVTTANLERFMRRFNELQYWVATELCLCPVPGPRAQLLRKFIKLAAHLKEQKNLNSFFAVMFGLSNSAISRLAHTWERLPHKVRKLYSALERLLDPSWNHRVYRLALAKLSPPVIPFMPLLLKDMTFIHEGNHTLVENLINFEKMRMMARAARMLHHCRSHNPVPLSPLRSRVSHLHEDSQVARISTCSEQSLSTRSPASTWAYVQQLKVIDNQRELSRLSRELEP
Excerpt: The guanine nucleotide exchange activity of EPAC proteins can be biochemically determined using a coupled exchange assay, in which Rap1 loaded with a fluorescent GDP analog, 2′-/3′-O-(N′-methylanthraniloyl)guanosine-5′-O-diphosphate (MANT-GDP), is used as the substrate. The exchange of Rap1-bound MANT-GDP by free unlabeled GDP leads to a decrease in fluorescence as MANT-GDP contains an environment sensitive fluorophore, MANT, whose fluorescence intensity increases upon binding to Rap1. However, the MANT-GDP based GEF assay is not well suited for ESI-09 analogs because they absorb lights within the excitation emission wavelengths of the fluorophore.
Recombinant full-length human EPAC1, mouse EPAC2 and C-terminal truncated Rap1B(1-167) were purified as described previously.
In vitro EPAC GEF activity was measured as previously described with the exception that purified Rap1B(1-167) was loaded with BODIPY-GDP instead of MANT-GDP[39]. […] The exchange reaction was monitored using a Spectramax M2 Plate Reader (Molecular Devices) with the excitation and emission wavelengths set at 485 and 515 nm, respectively. […]

[9] = 50 nM EPAC2, 60 nM 8-NBD-cAMP, read-out: IC50, potency in competing with 8-NBD-cAMP binding to EPAC2
[10] = water, read-out: Solubility in water (converted)

`CC(C)(C)c1cc(C(=O)/C(C#N)=N/Nc2ccccc2Cl)no1` [HJC0693] showed an IC50 (EPAC2 [1]; [9]) of 28.3 ± 4 µM.

`CC(C)(C)c1cc(C(=O)/C(C#N)=N/Nc2cccc(Cl)c2Cl)no1` [HJC0750] gave an IC50 (EPAC2 [1]; [9]) of 35.6 ± 7.8 µM.

In the case of `Cc1ccc(S(=O)(=O)c2c(C)cc(C)cc2C)cc1` [ESI-05], the EPAC isoform selectivity (EPAC2 [2]) is listed as “exclusively selective for EPAC2”.

`CC(C)(C)c1cc(C(=O)/C(C#N)=N/Nc2ccccc2)no1` [HJC0695] gave an IC50 (EPAC2 [1]) of 59.8 ± 9.4 µM.

`CC(C)(C)c1cc(C(=O)/C(C#N)=N/Nc2cc(Cl)ccc2Cl)no1` [HJC0696] showed an IC50 (EPAC2 [1]; [9]) of 7.3 ± 1.2 µM.

With `CC(C)(C)c1cc(C(=O)/C(C#N)=N/Nc2ccc(Cl)cc2)no1` [HJC0694] the IC50 (EPAC2 [1]; [9]) was 26.5 ± 4.1 µM.

With `CC(C)(C)c1cc(C(=O)C(C#N)=NNc2cccc(Cl)c2)no1` [ESI-09, 3-[5-(tert-butyl)isoxazol-3-yl]-2-[2-(3-chlorophenyl) hydrazono] -3-oxopropanenitrile] the IC50 (EPAC2 [1]; [9]) was 9 ± 1.2 µM, the “mode of inhibition toward cAMP” value (EPAC2 [3]) was “reversible competitive EPAC2 inhibitors” and the solubility ([4]; ethanol, organic solvent or mixture, ethanol, read-out: Solubility in ethanol (converted)) was 15000 µg/mL and 45300 µM. The solubility [4, 10] was 5.95 ± 0.83 µg/mL (≈ 18 µM), the “effect on Tm of EPAC2” value (EPAC2 [5]; ESI-09 1-20 µM, no cAMP) was “didn't shift the Tm to lower temperature; also recorded: no significant difference in thermo-denaturation” and the “effect on Tm of EPAC2” value (EPAC2 [5]; ESI-09 in the presence of 100 µM cAMP) was “didn't lead to further changes in Tm”. The “effect on HSQC spectrum of EPAC1h 149-318” value (EPAC1h 149-318; 50 μM ESI-09, 100 μM protein) was “Only minor chemical shift changes”, the “effect on HSQC spectrum of EPAC1h 149-318” value (EPAC1h 149-318; 500 μM ESI-09, 100 μM protein) was “almost every peak broadens beyond detection” and the “effect in fatal rickettsioses” value (fatal rickettsioses) was “protecting mice from fatal rickettsioses”. The “effect on ovalbumin-induced oral tolerance” value [6] was “compromising ovalbumin-induced oral tolerance”, the “effect on pancreatic ductal adenocarcinoma invasion and metastasis” value [7] was “inhibits pancreatic ductal adenocarcinoma invasion and metastasis” and the bioavailability [8] was “excellent bioavailability”.

With `Nc1ncnc2c1ncn2[C@@H]1O[C@@H]2COP(=O)(O)O[C@H]2[C@H]1O` [cAMP, reference compound] the “melting temperature Tm of EPAC2” value (EPAC2 [5]; in the presence of 100 µM cAMP (about 48°C without)) was “around 46 °C”.

In the case of `CC(C)(C)c1cc(C(=O)/C(C#N)=N/Nc2cc(Cl)cc(Cl)c2)no1` [HJC0726], the IC50 (EPAC2 [1]; [9]) is reported as 1.9 ± 0.3 µM, the “increase in potency relative to ESI-09 in the 8-NBD-cAMP competition assay” value (EPAC2 [1]; vs ESI-09) is reported as 5 fold and the “mode of inhibition toward cAMP” value (EPAC2 [3]) is reported as “reversible competitive EPAC2 inhibitors”. The “potency relative to ESI-09 in inhibiting EPAC2” value (EPAC2 [3]; vs ESI-09) was “five-fold more potent”, the “potency relative to ESI-09 in inhibiting EPAC1” value (full-length EPAC1) was “five-fold more potent” and the solubility ([4]; ethanol, organic solvent or mixture, read-out: Solubility in ethanol (converted)) was 6800 µg/mL and 18600 µM. The solubility [4, 10] was 45.4 µg/mL and 124 µM.

With `CC(C)(C)c1cc(C(=O)/C(C#N)=N/Nc2ccc(Cl)c(Cl)c2)no1` [HJC0777] the IC50 (EPAC2 [1]; [9]) was 3 ± 0.6 µM.
